Experimental data taken from ChEMBL document CHEMBL1139069, “Novel antiproliferative analogs of the Taq DNA polymerase inhibitor catalpol” (2007).

Assays:
Assay type in all cases: functional
[1] = system: WiDr; assay: Antiproliferative activity against human WiDr cells after 48 hrs by SRB assay
[2] = system: HBL-100; assay: Cell cycle arrest in human HBL100 cells assessed as accumulation at G0/G1 phase at 5 uM after 24 hrs by flow cytometry
[3] = system: HBL-100; assay: Cell cycle arrest in human HBL100 cells assessed as accumulation at G2/M phase at 10 uM after 24 hrs by flow cytometry
[4] = system: HBL-100; assay: Cell cycle arrest in human HBL100 cells assessed as accumulation at G0/G1 phase at 10 uM after 24 hrs by flow cytometry
[5] = system: HBL-100; assay: Cell cycle arrest in human HBL100 cells assessed as accumulation at G2/M phase at 5 uM after 24 hrs by flow cytometry
[6] = system: SW1573; assay: Cell cycle arrest in human SW1573 cells assessed as accumulation at G2/M phase at 5 uM after 24 hrs by flow cytometry
[7] = system: A2780; assay: Antiproliferative activity against human A2780 cells after 48 hrs by SRB assay; conditions: A2780, 48 h
[8] = system: HBL-100; assay: Cell cycle arrest in human HBL100 cells assessed as accumulation at S phase at 5 uM after 24 hrs by flow cytometry
[9] = system: SW1573; assay: Cell cycle arrest in human SW1573 cells assessed as accumulation at G0/G1 phase at 5 uM after 24 hrs by flow cytometry
[10] = system: HeLa; assay: Antiproliferative activity against human HeLa cells after 48 hrs by SRB assay
[11] = system: HBL-100; assay: Cell cycle arrest in human HBL100 cells assessed as accumulation at S phase at 10 uM after 24 hrs by flow cytometry
[12] = system: SW1573; assay: Antiproliferative activity against human SW1573 cells after 48 hrs by SRB assay; conditions: SW1573, 48 h
[13] = system: T47D; assay: Antiproliferative activity against human T47D cells after 48 hrs by SRB assay
[14] = system: HBL-100; assay: Antiproliferative activity against human HBL100 cells after 48 hrs by SRB assay; conditions: HBL-100, 48 h
[15] = system: SW1573; assay: Cell cycle arrest in human SW1573 cells assessed as accumulation at G0/G1 phase at 10 uM after 24 hrs by flow cytometry
[16] = system: SW1573; assay: Cell cycle arrest in human SW1573 cells assessed as accumulation at G2/M phase at 10 uM after 24 hrs by flow cytometry
[17] = system: SW1573; assay: Cell cycle arrest in human SW1573 cells assessed as accumulation at S phase at 5 uM after 24 hrs by flow cytometry
[18] = system: SW1573; assay: Cell cycle arrest in human SW1573 cells assessed as accumulation at S phase at 10 uM after 24 hrs by flow cytometry

Structure (SMILES) | GI50 [7] [µM] | GI50 [10] [µM] | GI50 [12] [µM] | GI50 [13] [µM] | GI50 [1] [µM] | Activity [2] [%] | Activity [3] [%] | Activity [4] [%] | Activity [5] [%] | Activity [6] [%] | Activity [8] [%] | Activity [9] [%] | Activity [11] [%] | GI50 [14] [µM] | Activity [15] [%] | Activity [16] [%] | Activity [17] [%] | Activity [18] [%]
CC(C)(C)[Si](C)(C)OC[C@H]1O[C@H](O[C@@H]2OC=C[C@H]3[C@H](O)[C@@H]4O[C@]4(CO[Si](C)(C)C(C)(C)C)[C@@H]23)[C@H](O)[C@@H](O)[C@@H]1O | 2.6 | 3.6 | 4.8 | 3.6 | 2.7 | 54 | 19 | 51 | 11 | 14 | 35 | 49 | 30 | 2.8 | 63 | 17 | 37 | 20
CC(=O)OC[C@H]1O[C@H](O[C@@H]2OC=C[C@H]3[C@H](OC(C)=O)[C@@H]4O[C@]4(COC(C)=O)[C@@H]23)[C@H](OC(C)=O)[C@@H](OC(C)=O)[C@@H]1OC(C)=O | 60 | – | > 100 | > 100 | > 100 | – | – | – | – | – | – | – | – | – | – | – | – | –
OC[C@H]1O[C@@H](O[C@@H]2OC=C[C@H]3[C@H](O)[C@@H]4O[C@]4(CO)[C@@H]23)[C@H](O)[C@@H](O)[C@@H]1O [CATALPOL] | > 100 | – | > 100 | > 100 | > 100 | – | – | – | – | – | – | – | – | – | – | – | – | –
C[C@]1(O)C[C@@H](O)[C@]2(O)C=CO[C@@H](O[C@H]3O[C@H](CO)[C@@H](O)[C@H](O)[C@H]3O)[C@@H]21 [HARPAGIDE] | > 100 | – | > 100 | > 100 | > 100 | – | – | – | – | – | – | – | – | – | – | – | – | –

Continued, in another order:

GI50 [7] [µM] | GI50 [10] [µM] | GI50 [12] [µM] | GI50 [13] [µM] | Structure (SMILES) | GI50 [1] [µM] | Activity [2] [%] | Activity [3] [%] | Activity [4] [%] | Activity [5] [%] | Activity [6] [%] | Activity [8] [%] | Activity [9] [%] | Activity [11] [%] | GI50 [14] [µM] | Activity [15] [%] | Activity [16] [%] | Activity [17] [%] | Activity [18] [%]
2.4 | 4.4 | 2.7 | 4.1 | CC(C)(C)[Si](OC[C@H]1O[C@H](O[C@@H]2OC=C[C@H]3[C@H](O)[C@@H]4O[C@]4(CO[Si](c4ccccc4)(c4ccccc4)C(C)(C)C)[C@@H]23)[C@H](O)[C@@H](O)[C@@H]1O)(c1ccccc1)c1ccccc1 | 3.4 | 52 | 13 | 59 | 15 | 14 | 33 | 54 | 28 | 2.7 | 61 | 11 | 32 | 28
2.4 | 2.1 | 1.8 | 2.7 | CC(C)(C)[Si](OC[C@H]1O[C@H](O[C@@H]2OC=C[C@H]3[C@H](O[Si](c4ccccc4)(c4ccccc4)C(C)(C)C)[C@@H]4O[C@]4(CO[Si](c4ccccc4)(c4ccccc4)C(C)(C)C)[C@@H]23)[C@H](O)[C@@H](O)[C@@H]1O)(c1ccccc1)c1ccccc1 | 2 | 56 | 11 | 59 | 12 | 13 | 32 | 58 | 30 | 2.4 | 59 | 4 | 29 | 37
> 100 | > 100 | > 100 | > 100 | O=C(OC[C@H]1O[C@H](O[C@@H]2OC=C[C@H]3[C@H](OC(=O)c4ccccc4)[C@@H]4O[C@]4(COC(=O)c4ccccc4)[C@@H]23)[C@H](OC(=O)c2ccccc2)[C@@H](OC(=O)c2ccccc2)[C@@H]1OC(=O)c1ccccc1)c1ccccc1 | > 100 | – | – | – | – | – | – | – | – | > 100 | – | – | – | –
36 | 77 | 88 | 87 | CC(C)(C)[Si](C)(C)OC[C@]12O[C@H]1[C@@H](O)[C@@H]1C=CO[C@@H](O[C@H]3O[C@H](CO)[C@@H](O)[C@H](O)[C@H]3O)[C@@H]12 | 81 | – | – | – | – | – | – | – | – | 52 | – | – | – | –
